The values below come from patent US4894374A, “Substituted 1,2-dihydro-4h-3,1-benzoxazin-4-one derivatives inhibitors of interleukin 1” (American Home Products Corporation, priority 1988, dated 1990).

The structures appear in SMILES notation.

Usually inhibition stands for the drop in the measured response relative to a control, in per cent.

The subject of this test is IL 1-induced release of neutral protease from rabbit articular chondrocytes. The test can be described thus: inhibition of IL 1-induced release of neutral protease from rabbit articular chondrocytes. Format: cell-based, rabbit (New Zealand White). To be noted: Oryctolagus cuniculus, Chondrocyte, human IL 1 stimulation, 24 h, compound added 10 min before IL 1, ± S.D., read-out: % Inhibition (of protease secretion). The procedure: The ability of the compounds of the inventions to inhibit interleukin 1 is measured by the ability of the test compounds to inhibit the IL 1-induced release of neutral protease from rabbit articular chondrocytes.
Male New Zealand White rabbits are anesthetized with 50 mg/kg of ketamine (i.m.) and killed by an intracardiac injection of 3 mls. of Nembutal. The knee joints of both legs are resected and the articular surfaces are exposed. Cartilage slices are obtained using a scalpel and are placed in a tissue culture dish (100 mm diameter) containing 10 mls of Hank's balanced salt solution (HBSS). The chondrocytes within the cartilage slices are then liberated by a series of enzyme digestions. The slices are incubated for 10 min. at 37° C. in 0.05% hyaluronidase (Sigma H-3884), rinsed with HBSS and incubated with 0.2% trypsin (Sigma T-2395) for 10 min. at 37° C. The slices are rinsed again and incubated for 10 mins. at 37° C. with 1.2% collagenase (Sigma C-5138). The slices are then rinsed again with HBSS and resuspended in 10 ml of Ham's F-12 medium containing 10% fetal bovine calf serum (FCS) and 0.2 % collagenase and incubated overnight at 37° C. in a 5% CO2 incubator. The next day, the medium containing the digested cartilage fragments and liberated chondrocytes is transferred to a 15 ml centrifuge tube and the cells are collected by centrifugation and washed twice and resuspended in Ham's F-12 medium. The cells are then plated into 24-well tissue culture plates (2×10^5 cells/well) and incubated at 37° C. until confluent (usually 4-6 days).
The confluent chondrocytes are rinsed twice with serum-free Ham's F-12 medium and 1 ml is added to each well. Fifty μl of purified human IL 1 (100 Units/ml; Genzyme Corporation, Boston, MA) is then added to stimulate these cells to secrete neutral protease. To measure drug effects, the cells are treated with test compound 10 min. prior to addition of IL 1. The standard screening dose is 10 μM. Twenty-four hours after IL 1 stimulation, supernatant fluids are collected and assayed for neutral protease activity.
The neutral protease activity of chondrocyte supernatant fluids is determined by their ability to degrade an insoluble protease substrate, azocoll (Sigma). Supernatants are treated for 10 min. at room temperature with 350 μM p-aminophenylmercuric acetate to activate the latent enzyme. Three hundred μl of supernatant is then mixed with 500 μl of a 20 mg/ml suspension of azocoll and incubated at 37° C. for 18-24 hrs. with gentle rocking. The mixtures are centrifuged and the amount of substrate hydrolyzed is determined by measuring the absorbance of the supernatant at 520 nm.
Drug effects are calculated as the % change in enzyme activity (absorbance)by supernatants from drug-treated chondrocytes relative to enzyme activity of supernatants from vehicle-treated chondrocytes as follows: % Inhibition of Protease Secretion= [formula]

Take `N#Cc1ccc(N2CCC3(CC2)Nc2cc(Cl)ccc2C(=O)O3)cc1` [Example 1, 4-[7-Chloro-1,3-dihydro-4-oxospiro[2H-3,1-benzoxazine-2,4'-piperidin]-1-yl]benzonitrile]: the inhibition at 1 µM is 56 ± 22%, the inhibition at 5 µM turned out to be 55 ± 19% and the inhibition at 10 µM was 47 ± 34%.
`CS(=O)(=O)c1ccc(N2CCC3(CC2)Nc2cc(Cl)ccc2C(=O)O3)cc1` [Example 2, 7-Chloro-1'-[4-(methylsulfonyl)phenyl]spiro[2H-3,1-benzoxazine-2,4'-piperidin]-4(1H)-one]: the inhibition at 1 µM worked out at 30 ± 31%, the inhibition at 5 µM amounted to 48 ± 7% and the inhibition at 10 µM amounted to 51 ± 32%.
